Laboratory results published in patent US8822510B2, “Substituted 3-phenyl-1,2,4-Oxadiazole compounds” (Bristol-Myers Squibb Company, priority 2010, dated 2014).

How the values were obtained:
circulating lymphocytes = assay: Blood Lymphocyte Reduction Assay (BLR) in Rodents; format: in vivo; conditions: Lewis rats, oral, vs vehicle group
Protocol: Lewis rats were dosed orally with test article (as a solution or suspension in the vehicle) or vehicle alone (polyethylene glycol 300, “PEG300”). Blood was drawn at 4 hr and 24 h by retro-orbital bleeding. Blood lymphocyte counts were determined on an ADVIA 120 Hematology Analyzer (Siemens Healthcare Diagnostics). The results were measured as a reduction in the percentage of circulating lymphocytes as compared to the vehicle treated group at the 4 hr and 24 hr measurement. The results represent the average results of all animals within each treatment group (n=3-4).
The following examples were tested in the Blood Lymphocyte Reduction assay (BLR) described hereinabove and the results are shown in Table C for rats.

S1P1 [1] = biological target: T1, S1P1 (Homo sapiens (Human), UniProt P21453); assay: Receptor [35S] GTPγS Binding Assay, S1P1; format: biochemical; conditions: membranes from S1P1/CHO cells
Protocol: Membranes prepared from S1P1/CHO cells or EDG3-Ga15-b1a HEK293T cells were added to the compound plate (40 μl/well, final protein 3 μg/well) with MULTIDROP®. [^35S] GTP (1250 Ci/mmol, Perkin Elmer) was diluted in assay buffer: 20 mM HEPES, pH7.5, 10 mM MgCl2, 150 mM NaCl, 1 mM EGTA, 1 mM DTT, 10 μM GDP, 0.1% fatty acid free BSA, and 10 μg/ml Saponin to 0.4 nM. 40 μl of the [^35S] GTP solution was added to the compound plate with a final concentration of 0.2 nM. The reaction was kept at room temperature for 45 min. At the end of incubation, all the mixtures in the compound plate were transferred to Millipore 384-well FB filter plates via the VELOCITY 11® Vprep liquid handler. The filter plate was washed with water 4 times by using the manifold Embla plate washer and dried at 60° C. for 45 min. MicroScint 20 scintillation fluid (30 μl) was added to each well for counting on the Packard TOPCOUNT®. […] The results in Table B were rounded to two digits. […]

S1P1 [2] = biological target: T1, S1P1; assay: S1P1 Binding Assay; conditions: 33P-S1P ligand, membranes from CHO cells expressing human S1P1
Protocol: Membranes were prepared from CHO cells expressing human S1P1. Cells pellets (1×10^8 cells/pellet) were suspended in buffer containing 20 mM HEPES, pH 7.5, 50 mM NaCl, 2 mM EDTA and Protease Inhibitor cocktail (Roche), and disrupted on ice using the Polytron homogenizer. The homogenate was centrifuged at 20,000 rpm (48,000 g) and the supernatant was discarded. The membrane pellets were resuspended in buffer containing 50 mM HEPES, pH 7.5, 100 mM NaCl, 1 mM MgCl2, 2 mM EDTA and stored in aliquots at […] after protein concentration determination.
Membranes (2 μg/well) and 0.03 nM final concentration of 33P-S1P ligand (1 mCi/ml, American Radiolabeled Chemicals) diluted in assay buffer (50 mM HEPES, pH7.4, 5 mM MgCl2, 1 mM CaCl2, 0.5% fatty acid free BSA, 1 mM NaF) were added to the compound plates (384 Falcon v-bottom plate (0.5 μl/well in a 11 point, 3-fold dilution). Binding was performed for 45 minutes at room temperature, terminated by collecting the membranes onto 384-well Millipore FB filter plates, and radioactivity was measured by TOPCOUNT®. The competition data of the test compounds over a range of concentrations was plotted as percentage inhibition of radioligand specific binding. The IC50 is defined as the concentration of competing ligand needed to reduce specific binding by 50%.
Table A below lists S1P1 Binding IC50 values from the following examples of this invention measured in the S1P1 binding assay described hereinabove. The results in Table A were rounded to two digits.

S1P3 = S1P3 (Homo sapiens (Human), UniProt Q99500); assay: Receptor [35S] GTPγS Binding Assay, S1P3; format: biochemical; conditions: membranes from EDG3-Ga15-b1a HEK293T cells
Protocol: Compounds were loaded in a 384 Falcon v-bottom plate (0.5 μl/well in a 11 point, 3-fold dilution). Membranes prepared from S1P1/CHO cells or EDG3-Ga15-b1a HEK293T cells were added to the compound plate (40 μl/well, final protein 3 μg/well) with MULTIDROP®. [^35S] GTP (1250 Ci/mmol, Perkin Elmer) was diluted in assay buffer: 20 mM HEPES, pH7.5, 10 mM MgCl2, 150 mM NaCl, 1 mM EGTA, 1 mM DTT, 10 μM GDP, 0.1% fatty acid free BSA, and 10 μg/ml Saponin to 0.4 nM. 40 μl of the [^35S] GTP solution was added to the compound plate with a final concentration of 0.2 nM. The reaction was kept at room temperature for 45 min. At the end of incubation, all the mixtures in the compound plate were transferred to Millipore 384-well FB filter plates via the VELOCITY 11® Vprep liquid handler. The filter plate was washed with water 4 times by using the manifold Embla plate washer and dried at 60° C. for 45 min. MicroScint 20 scintillation fluid (30 μl) was added to each well for counting on the Packard TOPCOUNT®. EC50 is defined as the agonist concentration that corresponds to 50% of the Ymax (maximal response) obtained for each individual compound tested. The results in Table B were rounded to two digits.
A smaller value for GTPγS S1P1 EC50 value indicated greater activity for the compound in the GTPγS S1P1 binding assay. A larger value for the GTPγS S1P3 EC50 value indicated less activity in the GTPγS S1P3 binding assay.

Sequence of S1P3 (Q99500 whole entry): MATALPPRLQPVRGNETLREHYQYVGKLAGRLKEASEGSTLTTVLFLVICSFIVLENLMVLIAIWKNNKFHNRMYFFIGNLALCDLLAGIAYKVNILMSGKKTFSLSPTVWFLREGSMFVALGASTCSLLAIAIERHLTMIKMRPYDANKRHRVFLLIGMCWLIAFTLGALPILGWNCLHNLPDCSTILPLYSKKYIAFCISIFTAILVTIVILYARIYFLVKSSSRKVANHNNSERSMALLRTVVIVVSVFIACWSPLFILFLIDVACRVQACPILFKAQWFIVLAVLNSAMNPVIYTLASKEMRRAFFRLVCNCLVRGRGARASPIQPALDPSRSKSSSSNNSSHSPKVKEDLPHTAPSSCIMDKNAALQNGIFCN
T1 sequence (P21453 whole entry): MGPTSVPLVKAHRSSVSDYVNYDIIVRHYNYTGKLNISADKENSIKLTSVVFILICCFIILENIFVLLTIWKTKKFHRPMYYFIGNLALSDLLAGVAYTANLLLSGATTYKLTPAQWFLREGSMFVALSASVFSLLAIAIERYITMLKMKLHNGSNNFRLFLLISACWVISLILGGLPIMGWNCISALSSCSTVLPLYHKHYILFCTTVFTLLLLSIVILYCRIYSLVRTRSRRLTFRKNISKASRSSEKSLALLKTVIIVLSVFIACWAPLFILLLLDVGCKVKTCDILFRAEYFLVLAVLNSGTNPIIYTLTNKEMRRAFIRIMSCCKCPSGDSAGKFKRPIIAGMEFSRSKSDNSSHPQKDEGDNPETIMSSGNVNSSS

EC50 (S1P1 [1])	IC50 (S1P1 [2])	EC50 (S1P3)	Structure (SMILES)	% REDUCTION IN LYMPHOCYTES AT 4 HR. (circulating lymphocytes; 1.0 mg/kg)	% REDUCTION IN LYMPHOCYTES AT 4 HR. (circulating lymphocytes; 10.0 mg/kg)	% REDUCTION IN LYMPHOCYTES AT 4 HR. (circulating lymphocytes; 5.0 mg/kg)
–	–	–	O=C(O)C1CN(Cc2ccc(-c3noc(CCC4(c5ccccc5)CCCCC4)n3)cc2)C1 [Example 1, 1-(4-(5-(2-(1-phenylcyclohexyl)ethyl)-1,2,4-oxadiazol-3-yl)benzyl)azetidine-3-carboxylic acid]	75%	–	–
0.51 nM	0.12 nM	10.2 nM	Cc1cc(-c2noc(CCC3(c4ccc(F)cc4)CCCCC3)n2)cc(C)c1OC[C@@H](O)CO [Example 4]	–	–	–
0.23 nM	0.47 nM	16.4 nM	O=C(O)C1CN(Cc2ccc(-c3noc(CCCC4(c5ccc(F)cc5)CCCCC4)n3)cc2)C1 [Example 9, 1-(4-(5-(3-(1-(4-fluorophenyl)cyclohexyl)propyl)-1,2,4-oxadiazol-3-yl)benzyl)azetidine-3-carboxylic acid]	–	–	–
2.17 nM	1.68 nM	58.6 nM	O=C(O)C1CN(Cc2ccc(-c3noc(CCCC4(c5ccccc5)CCCCC4=O)n3)cc2)C1 (stereo not drawn) [Example 11, 1-(4-(5-(3-(2-oxo-1-phenylcyclohexyl)propyl)-1,2,4-oxadiazol-3-yl)benzyl)azetidine-3-carboxylic acid]	–	–	–
0.78 nM	0.31 nM	9.23 nM	O=C(O)C1CN(Cc2ccc(-c3noc(COCC4(c5ccc(F)cc5)CCCCC4)n3)cc2)C1 [Example 18, 1-(4-(5-(((1-(4-fluorophenyl)cyclohexyl)methoxy)methyl)-1,2,4-oxadiazol-3-yl)benzyl)azetidine-3-carboxylic acid]	–	–	–
1270 nM	477 nM	5380 nM	O=C1NC(=O)C2(CN(Cc3ccc(-c4noc(COCC5(c6ccc(Cl)cc6)CCC5)n4)cc3)C2)N1 [Example 19, 2-(4-(5-(((1-(4-chlorophenyl)cyclobutyl)methoxy)methyl)-1,2,4-oxadiazol-3-yl)benzyl)-2,5,7-triazaspiro[3.4]octane-6,8-dione]	–	–	–
–	–	–	Cc1cc(-c2noc(/C(F)=C/C3(c4ccc(Cl)cc4)CC3)n2)cc(C)c1OC[C@@H](O)CO [Example 48, (2S)-3-(4-(5-((Z)-2-(1-(4-chlorophenyl)cyclopropyl)-1-fluorovinyl)-1,2,4-oxadiazol-3-yl)-2,6-dimethylphenoxy)-1,2-propanediol]	–	83%	–
8.1 nM	5.75 nM	139 nM	Cc1cc(-c2noc(/C=C/C3(c4ccc(Cl)cc4)CCCCC3)n2)cc(C)c1OC[C@@H](O)CO [Example 52, (2S)-3-(4-(5-((E)-2-(1-(4-chlorophenyl)cyclohexyl)vinyl)-1,2,4-oxadiazol-3-yl)-2,6-dimethylphenoxy)-1,2-propanediol]	–	–	–
2.74 nM	0.21 nM	4.94 nM	O=C(O)C1CN(Cc2ccc(-c3noc(CCC4(c5ccc(F)cc5)CCCCC4)n3)cc2)C1 [Example 63, 1-(4-(5-(2-(1-(4-fluorophenyl)cyclohexyl)ethyl)-1,2,4-oxadiazol-3-yl)benzyl)-3-azetidinecarboxylic acid]	–	–	–
700 nM	135 nM	> 62500 nM	O=C(O)C1CN(Cc2ccc(-c3noc(C(F)(F)C(O)C4(c5ccc(Cl)cc5)CC4)n3)cc2)C1 (stereo not drawn) [Example 85, 1-(4-(5-(2-(1-(4-chlorophenyl)cyclopropyl)-1,1-difluoro-2-hydroxyethyl)-1,2,4-oxadiazol-3-yl)benzyl)-3-azetidinecarboxylic acid]	–	–	–
–	26.7 nM	–	O=C(O)C1CN(Cc2ccc(-c3noc(/C=C/C4(c5ccc(C(F)(F)F)cc5)CCCCC4)n3)cc2)C1 [Example 88, 1-(4-(5-((E)-2-(1-(4-(trifluoromethyl)phenyl)cyclohexyl)vinyl)-1,2,4-oxadiazol-3-yl)benzyl)-3-azetidinecarboxylic acid]	–	–	–
–	–	–	O=C(O)C1CN(Cc2ccc(-c3noc(/C=C/C4(c5cccc(Cl)c5)CCCCC4)n3)cc2)C1 [Example 90, 1-(4-(5-((E)-2-(1-(3-chlorophenyl)cyclohexyl)vinyl)-1,2,4-oxadiazol-3-yl)benzyl)-3-azetidinecarboxylic acid]	–	–	85%
36.9 nM	45.6 nM	421 nM	O=C(O)C1CN(Cc2ccc(-c3noc(/C=C/C4(c5ccc(Cl)cc5)CCCCC4)n3)cc2)C1 [Example 92, 1-(4-(5-((E)-2-(1-(4-chlorophenyl)cyclohexyl)vinyl)-1,2,4-oxadiazol-3-yl)benzyl)-3-azetidinecarboxylic acid]	–	–	–
0.7 nM	0.54 nM	27.4 nM	O=C(O)C1CN(Cc2ccc(-c3noc(CCCC4(c5ccc(Cl)cc5)CCCCC4)n3)cc2)C1 [Example 98, 1-(4-(5-(3-(1-(4-chlorophenyl)cyclohexyl)propyl)-1,2,4-oxadiazol-3-yl)benzyl)-3-azetidinecarboxylic acid]	–	–	–
0.41 nM	3.4 nM	11.7 nM	O=C(O)C1CN(Cc2ccc(-c3noc(C/C=C/C4(c5ccc(F)cc5)CCCCC4)n3)cc2)C1 [Example 100, 1-(4-(5-((2E)-3-(1-(4-fluorophenyl)cyclohexyl)-2-propen-1-yl)-1,2,4-oxadiazol-3-yl)benzyl)-3-azetidinecarboxylic acid]	–	–	–
17.1 nM	–	1490 nM	O=C(O)C1CN(Cc2ccc(-c3noc(/C=C/C4(Cc5ccccc5)CCC4)n3)cc2)C1 [Example 103, 1-(4-(5-((E)-2-(1-benzylcyclobutyl)vinyl)-1,2,4-oxadiazol-3-yl)benzyl)-3-azetidinecarboxylic acid]	–	–	–
7360 nM	861 nM	> 62500 nM	O=C(O)C1CN(Cc2ccc(-c3noc(CCC4(c5cccnc5)CCOCC4)n3)cc2)C1 [Example 108, 1-(4-(5-(2-(4-(3-pyridinyl)tetrahydro-2H-pyran-4-yl)ethyl)-1,2,4-oxadiazol-3-yl)benzyl)-3-azetidinecarboxylic acid]	–	–	–
50.7 nM	12 nM	5240 nM	O=C(O)C1CN(Cc2ccc(-c3noc(COCC4(c5ccc(Cl)cc5)CCC4)n3)c(Cl)c2)C1 [Example 141, 1-(3-chloro-4-(5-(((1-(4-chlorophenyl)cyclobutyl)methoxy)methyl)-1,2,4-oxadiazol-3-yl)benzyl)-3-azetidinecarboxylic acid]	–	–	–
17.5 nM	9.72 nM	3730 nM	O=C(O)C1CN(Cc2ccc(-c3noc(COCC4(c5ccc(Cl)cc5)CCC4)n3)c(F)c2)C1 [Example 143, 1-(4-(5-(((1-(4-chlorophenyl)cyclobutyl)methoxy)methyl)-1,2,4-oxadiazol-3-yl)-3-fluorobenzyl)-3-azetidinecarboxylic acid]	–	–	–
